Reference: US6218378A, “Anti-tumor agents comprising pyridyl-substituted metal-diphosphine complex” (priority 1994, dated 2001)

Legend:
tumour models in mice = conditions: reference EP0198696; cited from earlier work
human tumour cell lines = test: selectivity of cytotoxicity over all cell lines evaluated (Tables 1 and 2); assay type: cell-based
Text: The origins of the human melanoma cell line MM96 has been described in Whitehead et al., 1973, Pigment Cell 1 383-389. The cell line JAM is described in Ward et al., 1987, Cancer Res. 47 2662-2667. The origin of the ovarian tumour line CI-80-13S has been described in Bertoncello et al., 1985, Aust. J. Exp. Biol. Med. Sci. 63 241-243. The origin of the cervical carcinoma cell line HeLa has been described in Maynard et al., 1986, Cancer Res. 46 5009-5093. The subclone HeLa-S1a was derived by stably transfecting HeLa with PAI-2 cDNA described in Schleuning et al., 1987, Mol. Cell. Biol. 7 4564-4567 in the sense orientation under the control of the cyto-megalovirus (CMV) promoter. The stably infected subclone was isolated following G418 selection and expression of the PAI-2 transgene characterised by immunoblot analysis and quantitated by ELISA. All of these cell lines have been used before for carrying out cell survival assays referred to in FIGS. 1-4. Cells were cultured at 37° in 5% CO2 /air in Roswell Park Memorial Institute medium 1640 containing 5% foetal calf serum, 100 μg/ml streptomycin, 100 IU/ml penicillin, 1 mM pyruvate, 50 μM nicotinamide and 3 mM HEPES.
Cells were seeded in microtitre plates (lowest number for fastest growing cells: 1000 HeLa, 2000 MM96, […] CI-80-13S cells per 6 mm well in 100 μl), normally but not necessarily allowed to attach overnight, then 5 dilutions of the drug were added to duplicate wells. After an overnight incubation to equilibrate the pH, the lids were quickly taped around the edge to prevent evaporation. The plates were incubated for 5-7 days, until the controls were nearly confluent. Cell growth/morphology was scored at each dose visually (inverted microscope). The medium was then replaced by 50 μl fresh medium containing 2 u/Ci/ml [methyl-3H]-thymidine (5 Ci/mmol; Radiochemical Centre, Amersham, Bucks., U.K.) and incubated for 2-4 hr. The cells were washed with PBS (0.1 M NaCl, 50 mM phosphate, pH 7.2), detached with 100 μl of PBS containing 0.2 mg/ml trypsin and 10 mM EDTA, and washed onto a glass fibre GF/a filter mat with water using a cell harvester. Later, wells were checked under the microscope to ensure complete detachment and washout. Radioactivity was determined in an LKB Beta Plate counter and the results plotted as log % control cpm versus dose. The ID50 (dose required to give 50% survival) was interpolated from this survival curve.
The sensitive CH1 cell line was established from a patient with drug-sensitive disease and its resistant variant (CH1-cisR) was generated by prolonged in vitro exposure to cisplatin during which it acquired more efficient DNA repair as described in Kelland et al., 1992, Cancer Research 52 3857-3864. The sensitive 41M cell line was also established from a patient with a sensitive tumor and its resistant variant (41M-cisR) was generated in the same way but acquired decreased uptake across the cell membrane (Kelland et al., 1992, supra). The intrinsically-resistant SKOV-3 ovarian carcinoma cell line has high glutathione levels as described in Mistry et al., 1991, Brit. J. Cancer 64 215-220 and reduced levels of bi-functional cisplatin-DNA lesions as described in McKeage et al., 1994, Brit. J. Cancer 69 1-7. The characteristics of the cell line pairs CH1/CH1 cisR, 41M/41McisR and 41M/SKOV3 are described in Table 3.
The cytotoxicity assay used sulforhodamine B which stains the basic amino acids. Cells (5000 or 2500 for SKOV-3) were seeded into 96 well microtitre plates (Linbro, Flow Laboratories Inc., USA) in 0.1 ml of medium. After an overnight incubation, the metal phosphine compounds were dissolved in 0.9% NaCl or ethanol and diluted with medium, were added at concentrations ranging from 0.005 to 50 μM to quadruplicate wells. After 96 hrs incubation, the medium was removed and cells were fixed in 0.2 ml of cold 10% (w/v) trichloroacetic acid (May & Baker Ltd., Dagenham, England) for 30 mins at 4° C. The plates were washed five times with tap water. […]

[1] = test system: M5076 Reticulum Cell Sarcoma; conditions: Berners-Price et al. 1990; cited from earlier work
CH1 = test: cytotoxicity assay, sulforhodamine B; assay type: cell-based, human; conditions: 96 hrs, mean ± SD or individual values when n<3
Method: (§1) In Table 2, reference is made to cell lines 41M, 41M-cisR, SKOV-3, CH1 and CH1-cisR.
(§2) J. Cancer 69 1-7. The characteristics of the cell line pairs CH1/CH1 cisR, 41M/41McisR and 41M/SKOV3 are described in Table 3.
(§3) The cytotoxicity assay used sulforhodamine B which stains the basic amino acids. Cells (5000 or 2500 for SKOV-3) were seeded into 96 well microtitre plates (Linbro, Flow Laboratories Inc., USA) in 0.1 ml of medium. After an overnight incubation, the metal phosphine compounds were dissolved in 0.9% NaCl or ethanol and diluted with medium, were added at concentrations ranging from 0.005 to 50 μM to quadruplicate wells. After 96 hrs incubation, the medium was removed and cells were fixed in 0.2 ml of cold 10% (w/v) trichloroacetic acid (May & Baker Ltd., Dagenham, England) for 30 mins at 4° C. The plates were washed five times with tap water. Then 0.1 ml of 0.4% (w/v) sulforhodamine B (Sigma Chemical Co., St. Louis, USA) dissolved in 1% acetic acid (Ajax Chemicals, Australia) was added to the wells and left to stand at room temperature for 15 mins. The plates were then washed five times with 1% acetic acid and left to dry overnight. The next morning, 0.1 ml of 10 mM Tris buffer (Sigma Chemical Co., St. Louis, USA) was then added to each plate to solubilise the dye. Absorbance was read at a wavelength of 570 nm using a 96 well plate reader Dynatech MR 5000 plate reader. Absorbance of treatment cells was expressed as a percentage of positive (drug-free) controls. The results were plotted as percentage growth versus drug concentration.

CH1-cisR = test: cytotoxicity assay, sulforhodamine B; assay type: cell-based, human; conditions: 96 hrs, mean ± SD or individual values when n<3
Method: as §1, §2, §3

SKOV-3 = test: cytotoxicity assay, sulforhodamine B; assay type: cell-based, human; conditions: 96 hrs, mean ± SD or individual values when n<3
Method: as §1, §2, §3

41M = test: cytotoxicity assay, sulforhodamine B; assay type: cell-based, human; conditions: 96 hrs, mean ± SD or individual values when n<3
Method: as §1, §2, §3

41M-cisR = test: cytotoxicity assay, sulforhodamine B; assay type: cell-based, human; conditions: 96 hrs, mean ± SD or individual values when n<3
Method: as §1, §2, §3

P388 leukaemia = conditions: i.p. P388 leukaemia; Berners-Price et al. 1990; cited from earlier work

[Cl-].c1cc([P+]2(c3ccncc3)CC[P+](c3ccncc3)(c3ccncc3)[Au-3]23[P+](c2ccncc2)(c2ccncc2)CC[P+]3(c2ccncc2)c2ccncc2)ccn1 [[Au(d4pype)2]Cl]
anti-tumour activity (EP0198696) (tumour models in mice): insignificant anti-tumour activity
number of cell lines against which cytotoxic (human tumour cell lines): cytotoxic to only four of the nine cell-lines tested
degree of selectivity (human tumour cell lines; Tables 1 and 2): the greatest selectivity
activity in mice [1]: inactive
IC50 (CH1): 400 ± 100 nM
IC50 (CH1-cisR): 600 ± 200 nM
IC50 (SKOV-3): > 100000 nM
IC50 (41M): > 100000 nM
IC50 (41M-cisR): > 100000 nM
activity in mice (P388 leukaemia): inactive
